Laboratory results as given in ChEMBL document CHEMBL1201862, “PubChem BioAssay data set” (2004).
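Each compound was tested at five concentrations against cells in 96-well plates for 48 hours. At the GI50, growth is halved.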 Active and inactive are the calls of the source. Cut-off read from the data, not from the text of the source: active = GI50 up to about 1.1 µM and inactive = higher.

How the values were obtained:
Test in all cases: NCI anticancer screen, dose series, 48 h
[1] = test system: NCI-H226
[2] = test system: SNB-19
[3] = test system: UO-31
[4] = test system: SF-539
[5] = test system: NCI-H522
[6] = test system: CAKI-1
[7] = test system: OVCAR-8
[8] = test system: SF-268
[9] = test system: SR
[10] = test system: NCI-H23
[11] = test system: SK-MEL-28
[12] = test system: HCC 2998
[13] = test system: HT-29
[14] = test system: SK-OV-3
[15] = test system: U-251
[16] = test system: MOLT-4
[17] = test system: RPMI-8226
[18] = test system: SNB-75
[19] = test system: HCT-15
[20] = test system: SK-MEL-2

Compound	GI50 [1]	GI50 [2]	GI50 [3]	GI50 [4]	GI50 [5]	GI50 [6]	GI50 [7]	GI50 [8]	GI50 [9]	GI50 [10]	GI50 [11]	GI50 [12]	GI50 [13]	GI50 [14]	GI50 [15]	GI50 [16]	GI50 [17]	GI50 [18]	GI50 [19] [µM]	GI50 [20]
Cc1c(OC(C)C(=O)O)ccc2c(-c3ccccc3)cc(=O)oc12 (stereo not given)	> 100 µM (inactive)	> 100 µM (inactive)	> 100 µM (inactive)	> 100 µM (inactive)	> 100 µM (inactive)	> 100 µM (inactive)	> 100 µM (inactive)	> 100 µM (inactive)	> 100 µM (inactive)	> 100 µM (inactive)	> 100 µM (inactive)	> 100 µM (inactive)	> 100 µM (inactive)	> 100 µM (inactive)	> 100 µM (inactive)	> 100 µM (inactive)	> 100 µM (inactive)	> 100 µM (inactive)	–	–
COc1ccc(-c2cs/c(=N\c3ccccc3)n2CCCN(C)C)cc1	18.2 µM (inactive)	19.2 µM (inactive)	12.4 µM (inactive)	13.6 µM (inactive)	–	71.9 µM (inactive)	21.8 µM (inactive)	24.3 µM (inactive)	22.8 µM (inactive)	23.1 µM (inactive)	18.2 µM (inactive)	16.3 µM (inactive)	–	15.6 µM (inactive)	43.4 µM (inactive)	16.5 µM (inactive)	24.5 µM (inactive)	4.44 µM (inactive)	24.8	19.8 µM (inactive)
CCN(CC)CCO[Si](OCCN(CC)CC)(OCCN(CC)CC)OCCN(CC)CC	88.5 µM (inactive)	> 100 µM (inactive)	> 100 µM (inactive)	> 100 µM (inactive)	–	> 100 µM (inactive)	> 100 µM (inactive)	–	> 100 µM (inactive)	> 100 µM (inactive)	> 100 µM (inactive)	> 100 µM (inactive)	> 100 µM (inactive)	> 100 µM (inactive)	> 100 µM (inactive)	–	–	> 100 µM (inactive)	> 100	> 100 µM (inactive)
NC(=O)OCC(COc1ccc(Cl)cc1)OC(=O)c1cc([N+](=O)[O-])cc([N+](=O)[O-])c1 (stereo not given)	> 100 µM (inactive)	> 100 µM (inactive)	> 100 µM (inactive)	> 100 µM (inactive)	79.3 µM (inactive)	> 100 µM (inactive)	> 100 µM (inactive)	> 100 µM (inactive)	> 100 µM (inactive)	> 100 µM (inactive)	> 100 µM (inactive)	> 100 µM (inactive)	> 100 µM (inactive)	> 100 µM (inactive)	> 100 µM (inactive)	> 100 µM (inactive)	> 100 µM (inactive)	> 100 µM (inactive)	33.5	71.6 µM (inactive)
ON(Cc1ccccc1)C(=S)c1ccccc1	20.1 µM (inactive)	17.7 µM (inactive)	4.03 µM (inactive)	5.43 µM (inactive)	0.482 µM (active)	–	3.46 µM (inactive)	3.32 µM (inactive)	0.481 µM (active)	3.62 µM (inactive)	11.4 µM (inactive)	7.24 µM (inactive)	2.88 µM (inactive)	14.7 µM (inactive)	3.64 µM (inactive)	1.09 µM (active)	2.77 µM (inactive)	19 µM (inactive)	2.6	2.62 µM (inactive)
N=c1n(C(=O)N2CCCC2)c2cc(Cl)ccc2n1C1=NCCN1	> 100 µM (inactive)	> 100 µM (inactive)	–	55.2 µM (inactive)	38.6 µM (inactive)	43.2 µM (inactive)	88.3 µM (inactive)	> 100 µM (inactive)	38.2 µM (inactive)	–	95.3 µM (inactive)	> 100 µM (inactive)	75.7 µM (inactive)	> 100 µM (inactive)	83.2 µM (inactive)	41.7 µM (inactive)	15.7 µM (inactive)	–	40.6	33.1 µM (inactive)
O=C1C(Cl)C2(CC(/C=C/c3cccs3)=NN2c2cccc(S(=O)(=O)O)c2)N1c1nc2ccccc2s1 (stereo not given)	27.9 µM (inactive)	> 100 µM (inactive)	10.9 µM (inactive)	> 100 µM (inactive)	18.2 µM (inactive)	37.1 µM (inactive)	41.7 µM (inactive)	> 100 µM (inactive)	29.9 µM (inactive)	27.8 µM (inactive)	> 100 µM (inactive)	> 100 µM (inactive)	73.5 µM (inactive)	–	99.8 µM (inactive)	31.5 µM (inactive)	47 µM (inactive)	49.9 µM (inactive)	75.9	> 100 µM (inactive)
C#CCN(Cc1ccc2nc(-c3ccccc3)c(Cl)nc2c1)c1ccc(F)cc1	–	> 100 µM (inactive)	80.7 µM (inactive)	> 100 µM (inactive)	40.6 µM (inactive)	> 100 µM (inactive)	> 100 µM (inactive)	> 100 µM (inactive)	45.8 µM (inactive)	71.6 µM (inactive)	> 100 µM (inactive)	> 100 µM (inactive)	61.9 µM (inactive)	–	> 100 µM (inactive)	0.767 µM (active)	39.7 µM (inactive)	> 100 µM (inactive)	87.1	> 100 µM (inactive)
Brc1cc(CCOC2CCCCO2)c(-c2sccc2CCOC2CCCCO2)s1 (stereo not given)	> 100 µM (inactive)	> 100 µM (inactive)	14 µM (inactive)	55.5 µM (inactive)	14.4 µM (inactive)	> 91.4 µM (inactive)	45.5 µM (inactive)	53.6 µM (inactive)	9.75 µM (inactive)	34.7 µM (inactive)	> 95.1 µM (inactive)	31.9 µM (inactive)	61.8 µM (inactive)	> 69.2 µM (inactive)	57.8 µM (inactive)	22.2 µM (inactive)	23.9 µM (inactive)	43.5 µM (inactive)	33.3	27.4 µM (inactive)
Cn1c(=O)c(Cl)c(N=[N+]=[N-])c2ccccc21	39.8 µM (inactive)	> 100 µM (inactive)	> 100 µM (inactive)	> 100 µM (inactive)	74.3 µM (inactive)	78.7 µM (inactive)	> 100 µM (inactive)	> 100 µM (inactive)	58.5 µM (inactive)	> 100 µM (inactive)	> 100 µM (inactive)	> 100 µM (inactive)	> 100 µM (inactive)	> 100 µM (inactive)	> 100 µM (inactive)	23.3 µM (inactive)	–	25.8 µM (inactive)	> 100	> 100 µM (inactive)
CCCCCCCc1cscc1-c1cscc1Br	65.2 µM (inactive)	70.1 µM (inactive)	35.6 µM (inactive)	> 100 µM (inactive)	21.4 µM (inactive)	22.5 µM (inactive)	52 µM (inactive)	> 100 µM (inactive)	19.6 µM (inactive)	40.8 µM (inactive)	88.9 µM (inactive)	27.7 µM (inactive)	–	45.9 µM (inactive)	39.3 µM (inactive)	20.2 µM (inactive)	18.5 µM (inactive)	25.8 µM (inactive)	36.1	16.6 µM (inactive)
CC(C)C1=C(O)C(=O)C2=C(C1=O)C(OC=O)C(O)C1C(C)(C)CCCC21C (stereo not given)	5.08 µM (inactive)	13.4 µM (inactive)	5.82 µM (inactive)	13.7 µM (inactive)	10.8 µM (inactive)	4.04 µM (inactive)	7.29 µM (inactive)	10.5 µM (inactive)	3 µM (inactive)	7 µM (inactive)	3.13 µM (inactive)	6.82 µM (inactive)	11.2 µM (inactive)	13.4 µM (inactive)	4.28 µM (inactive)	2.25 µM (inactive)	2.66 µM (inactive)	10.8 µM (inactive)	4.04	12.1 µM (inactive)
C=C(C)C1Cc2c(cc(O)c3c(=O)c4ccccc4n(C)c23)O1 (stereo not given)	37.1 µM (inactive)	13.9 µM (inactive)	–	–	19.9 µM (inactive)	20.7 µM (inactive)	–	21.5 µM (inactive)	29.9 µM (inactive)	32.2 µM (inactive)	> 100 µM (inactive)	> 100 µM (inactive)	> 100 µM (inactive)	25.5 µM (inactive)	56 µM (inactive)	> 100 µM (inactive)	> 100 µM (inactive)	14.9 µM (inactive)	> 100	34.8 µM (inactive)
COC(=O)N[C@H](C(=O)NC(OCc1ccccc1)C1COC(C)(C)O1)C(C)O[Si](C)(C)C(C)(C)C (stereo not given in full)	–	> 100 µM (inactive)	> 100 µM (inactive)	–	–	96.2 µM (inactive)	> 100 µM (inactive)	> 100 µM (inactive)	26.4 µM (inactive)	> 100 µM (inactive)	> 100 µM (inactive)	77.8 µM (inactive)	24.3 µM (inactive)	> 100 µM (inactive)	88.7 µM (inactive)	31.4 µM (inactive)	22.4 µM (inactive)	38.4 µM (inactive)	58.3	–
S=C=NCCc1ccccc1 [PHENETHYLISOTHIOCYANATE]	1.49 µM (inactive)	1.73 µM (inactive)	1.59 µM (inactive)	0.207 µM (active)	0.193 µM (active)	–	1.33 µM (inactive)	1.06 µM (active)	0.351 µM (active)	0.453 µM (active)	0.71 µM (active)	0.412 µM (active)	0.219 µM (active)	1.72 µM (inactive)	0.794 µM (active)	0.53 µM (active)	0.179 µM (active)	2.65 µM (inactive)	0.228	0.402 µM (active)
